24 compounds from ChEMBL document CHEMBL1146800, “Structure-based design of amidinophenylurea-derivatives for factor VIIa inhibition” (Bioorg Med Chem Lett, 2004) can be followed below.

In assay [1] the target is T1, Coagulation factor VII (Homo sapiens, UniProt P08709).
T1 sequence (P08709 whole entry): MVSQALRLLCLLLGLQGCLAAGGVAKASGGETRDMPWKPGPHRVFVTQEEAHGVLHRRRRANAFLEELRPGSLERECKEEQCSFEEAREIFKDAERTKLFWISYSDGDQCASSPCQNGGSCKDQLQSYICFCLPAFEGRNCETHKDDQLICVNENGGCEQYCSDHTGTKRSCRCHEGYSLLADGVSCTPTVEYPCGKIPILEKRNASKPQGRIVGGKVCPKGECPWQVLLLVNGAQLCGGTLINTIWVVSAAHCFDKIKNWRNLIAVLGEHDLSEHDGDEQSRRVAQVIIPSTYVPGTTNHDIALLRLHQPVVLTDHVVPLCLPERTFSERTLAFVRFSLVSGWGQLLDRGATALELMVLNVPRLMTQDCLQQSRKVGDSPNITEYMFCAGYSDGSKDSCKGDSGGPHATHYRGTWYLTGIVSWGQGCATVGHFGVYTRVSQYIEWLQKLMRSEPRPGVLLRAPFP
In words: In vitro inhibition of human coagulation factor VIIa.

The target of assay [2] is Coagulation factor X (Homo sapiens, UniProt P00742). As to the kind of experiment: In vitro inhibition of coagulation factor X.
For assay [3], the target named is Prothrombin (Homo sapiens, UniProt P00734). In words: In vitro inhibition of thrombin.

Chain of Coagulation factor X (P00742 41-179 limits assumed): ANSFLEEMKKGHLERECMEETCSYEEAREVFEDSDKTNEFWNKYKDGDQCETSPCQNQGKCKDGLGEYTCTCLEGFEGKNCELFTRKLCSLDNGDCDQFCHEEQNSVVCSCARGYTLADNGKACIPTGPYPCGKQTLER
Chain of Coagulation factor X (P00742 235-488 limits assumed): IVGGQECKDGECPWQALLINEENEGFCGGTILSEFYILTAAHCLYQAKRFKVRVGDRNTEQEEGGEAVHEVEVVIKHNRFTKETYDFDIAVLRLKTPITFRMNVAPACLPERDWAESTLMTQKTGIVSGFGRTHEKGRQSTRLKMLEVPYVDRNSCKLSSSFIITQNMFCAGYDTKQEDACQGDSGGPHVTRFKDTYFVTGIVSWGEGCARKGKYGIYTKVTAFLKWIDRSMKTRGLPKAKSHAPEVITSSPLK

Compound `CC(NC(=O)CNC(=O)Nc1ccc(C(=N)N)cc1)c1ccc(OCc2ccccc2)cc1` (stereo not given) yielded a Ki in assay [1] of 0.133 µM.

On to `C[C@@H](NC(=O)CNC(=O)Nc1ccc(C(=N)N)cc1)c1ccc2ccccc2c1`, for which the affinity in assay [1] corresponds to a Ki of 7 µM.

The compound `CC(NC(=O)CNC(=O)Nc1ccc(C(=N)N)cc1)c1ccc(Cc2ccccc2)cc1` (stereo not given) had a Ki in assay [1] of 0.19 µM.

Take `COC(=O)c1cc(C(C)NC(=O)CNC(=O)Nc2ccc(C(=N)N)cc2)ccc1OCc1ccccc1` (stereo not given): the Ki in assay [2] is more than 10 µM; in assay [3], 0.5 µM.

With `CC(NC(=O)CNC(=O)Nc1ccc(C(=N)N)cc1)c1ccc(N2CCOCC2)cc1` (stereo not given), the inhibition constant Ki was more than 10 µM in assay [2], 0.142 µM in assay [1] and 3.2 µM in assay [3].

With `CC(NC(=O)CNC(=O)Nc1ccc(C(=N)N)cc1)c1ccc(C(=O)Nc2ccccc2)cc1` (stereo not given), the figures for the inhibition constant Ki in assay [2], in assay [1] and in assay [3] were more than 10 µM, 0.02 µM and 12.1 µM, respectively.

On to `CC(NC(=O)CNC(=O)Nc1ccc(C(=N)N)cc1)c1ccc(OCc2cccc(Cl)c2)cc1` (stereo not given), for which the inhibitory constant (Ki) in assay [2] is more than 10 µM; in assay [1], 0.023 µM; in assay [3], 2.3 µM.

For the compound `C[C@H](NC(=O)CNC(=O)Nc1ccc(C(=N)N)cc1)c1ccc(Br)cc1`, the inhibition constant (Ki) was more than 10 µM in assay [2], 0.156 µM in assay [1] and 6.76 µM in assay [3].

`CC(NC(=O)CNC(=O)Nc1ccc(C(=N)N)cc1)c1ccc(Oc2ccccc2)cc1` (stereo not given): the Ki was more than 10 µM in assay [2], 0.078 µM in assay [1] and 9.1 µM in assay [3].

Regarding `CC(=O)Nc1ccc(C(C)NC(=O)CNC(=O)Nc2ccc(C(=N)N)cc2)cc1` (stereo not given), the Ki in assay [2] was more than 10 µM; in assay [1], 0.196 µM; in assay [3], more than 50 µM.

As to `CC(NC(=O)CNC(=O)Nc1ccc(C(=N)N)cc1)c1ccc(N2CCOCC2)c(C(F)(F)F)c1` (stereo not given), the values for the inhibition constant (Ki) in assay [2], in assay [1] and in assay [3] were more than 10 µM, 0.03 µM and 1.9 µM, respectively.

With `CC(NC(=O)CNC(=O)Nc1ccc(C(=N)N)cc1)c1ccc(NC(=O)C2CC2)cc1` (stereo not given), the inhibition constant (Ki) in assay [2] is more than 10 µM; in assay [1], 0.047 µM; in assay [3], 14.5 µM.

With `C[C@H](NC(=O)CNC(=O)Nc1ccc(C(=N)N)cc1)c1ccc2ccccc2c1`, the inhibition constant Ki in assay [2] came out at 6.23 µM; in assay [3] it was 3.18 µM.

As to `CC(NC(=O)CNC(=O)Nc1ccc(C(=N)N)cc1)c1ccc(NC(=O)c2ccccc2)cc1` (stereo not given), the inhibitory constant (Ki) was 4.6 µM in assay [2], 0.034 µM in assay [1] and 14.8 µM in assay [3].

As to `CC(NC(=O)CNC(=O)Nc1ccc(C(=N)N)cc1)c1ccc(Cl)c(Cl)c1` (stereo not given), the inhibition constant Ki in assay [1] worked out at 0.077 µM.

Consider `CC(NC(=O)CNC(=O)Nc1ccc(C(=N)N)cc1)c1ccc(N2CCOCC2)c(Br)c1` (stereo not given), for which the Ki was more than 10 µM in assay [2], 0.015 µM in assay [1] and 0.65 µM in assay [3].

With `COc1ccc(Oc2ccc(C(C)NC(=O)CNC(=O)Nc3ccc(C(=N)N)cc3)cc2)cc1` (stereo not given), the inhibition constant (Ki) in assay [2] was found to be 10.7 µM; in assay [3], 9.8 µM.

`CC(NC(=O)CNC(=O)Nc1ccc(C(=N)N)cc1)c1cccc(OCc2ccccc2)c1` (stereo not given) gave a Ki in assay [1] of 0.256 µM.

As to `Cc1cccc(C(=O)Nc2ccc(C(C)NC(=O)CNC(=O)Nc3ccc(C(=N)N)cc3)cc2)c1` (stereo not given), the inhibition constant Ki was more than 10 µM in assay [2], 0.026 µM in assay [1] and 10.9 µM in assay [3].

Consider `CC(NC(=O)CNC(=O)Nc1ccc(C(=N)N)cc1)c1ccc(NC(=O)C2CCNCC2)cc1` (stereo not given), for which the Ki in assay [2] was more than 10 µM; in assay [3], 68.5 µM.

In assay [2], `N=C(N)c1ccc(NC(=O)NCC(=O)NCc2ccc(Cl)c(Cl)c2)cc1` registered a Ki of 14.5 µM.

In the case of `CC(NC(=O)CNC(=O)Nc1ccc(C(=N)N)cc1)c1ccc(C(=O)Nc2cccc(Oc3ccccc3)c2)cc1` (stereo not given), the values for the Ki in assay [2], in assay [1] and in assay [3] were more than 10 µM, 0.043 µM and 11.9 µM, respectively.

As for `CC(NC(=O)CNC(=O)Nc1ccc(C(=N)N)cc1)c1ccc(NC(=O)c2cccc(Oc3ccccc3)c2)cc1` (stereo not given), the inhibition constant Ki was more than 10 µM in assay [2] and 33.2 µM in assay [3].

On to `COc1cccc(COc2ccc(C(C)NC(=O)CNC(=O)Nc3ccc(C(=N)N)cc3)cc2)c1` (stereo not given), for which the Ki in assay [2] was more than 10 µM; in assay [1], 0.02 µM; in assay [3], 2.3 µM.

As usually defined, the Ki is a measure of affinity in units of concentration, obtained from inhibition or displacement. A higher Ki goes with weaker binding.
